Literature values as cited in patent publication US20210052545A1, “COMPOSITIONS AND METHODS OF THEIR USE” (priority 2018, published 2021).

Conditions: human, in vivo

NC(=O)N1c2ccccc2C=Cc2ccccc21 [carbamezepine]
increase in the risk of blood dyscrasias: five- to eight | patients showing a 25% decrease in white blood cell count: 7%
